7 compounds from patent US10800791B2, “Triazole ACC inhibitors and uses thereof” (Gilead Apollo, LLC, priority 2015, dated 2020) can be followed below.

One test has as its system C. krusei. The experiment in a line: Antifungal Activity Assay (broth microtiter MIC), C. krusei. Format: cell-based, Candida krusei. The conditions noted are these: Pichia kudriavzevii, ATCC6258, 48 h, ATCC 6258, 3 replicates, MIC recorded at 48 h, read-out: MIC, C. krusei ATCC 6258. The method, then: (§1) Compounds of the present invention were evaluated in an Antifungal Activity Assay. An exemplary procedure for the assay, which measures the susceptibility of various Candida species to antifungal compounds, follows. Compounds to be tested (including fluconazole and amphotericin B) were dissolved in DMSO to obtain a solution having a concentration of 1 mg/mL. These stock solutions were sterile filtered using a 0.22 um nylon syringe filter, then diluted in sterile water to achieve a final concentration of 128 μg/mL.
(§2) All species were grown from frozen stock by directly plating on to freshly prepared Sabouraud Dextrose agar (BD, Difco) and incubated overnight in ambient air at 35° C. for 24 h. A direct suspension was prepared in RPMI 1640+MOPS (Lonza, Biowhittaker) by taking individual colonies from the overnight cultures using sterile swabs soaked in sterile saline. The concentration of the suspension was determined using pre-determined standard curves. These suspensions were then diluted down to 5×10^3 CFU/mL to achieve a final concentration of 2.5×10^3 CFU/mL once added to the microtiter plate as per CLSI guidelines (M27-A3, Vol. 28 No. 14).
(§3) Broth microtiter MIC challenge plates were prepared following CLSI guidelines (M27-A3, Vol. 28 No. 14). The original CLSI guidelines focused on reading Candida MICs after 48 h of incubation. As reading after only 24 h offers a clear advantage of patient care, QC limits are being established for all drugs at 24 h. That being said there are no known interpretive breakpoints for amphotericin B at 24 h and the current fluconazole interpretive breakpoints are based on a 48 h reading. The MICs for the test compounds were recorded at 48 h. All MIC determinations were achieved by visually comparing the growth found in the antibiotic challenged wells to that of the growth control.

Another test has as its target fungal (fACC2) (UniProt Q00955). The conditions noted are these: read-out: fACC2 (in vitro ACC2 Inhibition Assay, IC50), ADP-Glo, 5 nM ACC2, 20 μM ATP, 20 μM acetyl-CoA.
In the next test the test system is C. parapsilosis. The experiment in a line: Antifungal Activity Assay (broth microtiter MIC), C. parapsilosis. In kind it is cell-based, Candida parapsilosis. Conditions: Lodderomyces parapsilosis, ATCC22019, 48 h, ATCC 22019, 3 replicates, MIC recorded at 48 h, read-out: MIC, C. parapsilosis ATCC 22019. The protocol:
as §1, §2, §3

The subject of another test is C. albicans. The experiment in a line: Antifungal Activity Assay (broth microtiter MIC), C. albicans. Format: cell-based, Candida albicans. The conditions noted are these: Candida albicans, ATCC90028, 48 h, ATCC 90028, 3 replicates, MIC recorded at 48 h, read-out: MIC, C. albicans ATCC 90028. The method, then: as §1, §2, §3
Another test concerns the target human (hACC2) (Homo sapiens, UniProt O00763). The experiment in a line: In vitro ACC inhibition assay (ADP-Glo), hACC2. In kind it is biochemical. The conditions noted are these: 5 nM ACC2, 20 μM ATP, 20 μM acetyl-CoA. The protocol:
The detailed procedure is as follows. […] 10 μL ADP glo reagent was added. […] 20 μL kinase detection reagent was added.
In general terms: In ADP-Glo the light output rises with the ADP produced.

Each structure is given as a SMILES string. Converted amounts (≈) assume the structure as drawn. Like-named read-outs stand apart in the source and are kept apart here.

Sequence of fungal (fACC2) (Q00955 whole entry): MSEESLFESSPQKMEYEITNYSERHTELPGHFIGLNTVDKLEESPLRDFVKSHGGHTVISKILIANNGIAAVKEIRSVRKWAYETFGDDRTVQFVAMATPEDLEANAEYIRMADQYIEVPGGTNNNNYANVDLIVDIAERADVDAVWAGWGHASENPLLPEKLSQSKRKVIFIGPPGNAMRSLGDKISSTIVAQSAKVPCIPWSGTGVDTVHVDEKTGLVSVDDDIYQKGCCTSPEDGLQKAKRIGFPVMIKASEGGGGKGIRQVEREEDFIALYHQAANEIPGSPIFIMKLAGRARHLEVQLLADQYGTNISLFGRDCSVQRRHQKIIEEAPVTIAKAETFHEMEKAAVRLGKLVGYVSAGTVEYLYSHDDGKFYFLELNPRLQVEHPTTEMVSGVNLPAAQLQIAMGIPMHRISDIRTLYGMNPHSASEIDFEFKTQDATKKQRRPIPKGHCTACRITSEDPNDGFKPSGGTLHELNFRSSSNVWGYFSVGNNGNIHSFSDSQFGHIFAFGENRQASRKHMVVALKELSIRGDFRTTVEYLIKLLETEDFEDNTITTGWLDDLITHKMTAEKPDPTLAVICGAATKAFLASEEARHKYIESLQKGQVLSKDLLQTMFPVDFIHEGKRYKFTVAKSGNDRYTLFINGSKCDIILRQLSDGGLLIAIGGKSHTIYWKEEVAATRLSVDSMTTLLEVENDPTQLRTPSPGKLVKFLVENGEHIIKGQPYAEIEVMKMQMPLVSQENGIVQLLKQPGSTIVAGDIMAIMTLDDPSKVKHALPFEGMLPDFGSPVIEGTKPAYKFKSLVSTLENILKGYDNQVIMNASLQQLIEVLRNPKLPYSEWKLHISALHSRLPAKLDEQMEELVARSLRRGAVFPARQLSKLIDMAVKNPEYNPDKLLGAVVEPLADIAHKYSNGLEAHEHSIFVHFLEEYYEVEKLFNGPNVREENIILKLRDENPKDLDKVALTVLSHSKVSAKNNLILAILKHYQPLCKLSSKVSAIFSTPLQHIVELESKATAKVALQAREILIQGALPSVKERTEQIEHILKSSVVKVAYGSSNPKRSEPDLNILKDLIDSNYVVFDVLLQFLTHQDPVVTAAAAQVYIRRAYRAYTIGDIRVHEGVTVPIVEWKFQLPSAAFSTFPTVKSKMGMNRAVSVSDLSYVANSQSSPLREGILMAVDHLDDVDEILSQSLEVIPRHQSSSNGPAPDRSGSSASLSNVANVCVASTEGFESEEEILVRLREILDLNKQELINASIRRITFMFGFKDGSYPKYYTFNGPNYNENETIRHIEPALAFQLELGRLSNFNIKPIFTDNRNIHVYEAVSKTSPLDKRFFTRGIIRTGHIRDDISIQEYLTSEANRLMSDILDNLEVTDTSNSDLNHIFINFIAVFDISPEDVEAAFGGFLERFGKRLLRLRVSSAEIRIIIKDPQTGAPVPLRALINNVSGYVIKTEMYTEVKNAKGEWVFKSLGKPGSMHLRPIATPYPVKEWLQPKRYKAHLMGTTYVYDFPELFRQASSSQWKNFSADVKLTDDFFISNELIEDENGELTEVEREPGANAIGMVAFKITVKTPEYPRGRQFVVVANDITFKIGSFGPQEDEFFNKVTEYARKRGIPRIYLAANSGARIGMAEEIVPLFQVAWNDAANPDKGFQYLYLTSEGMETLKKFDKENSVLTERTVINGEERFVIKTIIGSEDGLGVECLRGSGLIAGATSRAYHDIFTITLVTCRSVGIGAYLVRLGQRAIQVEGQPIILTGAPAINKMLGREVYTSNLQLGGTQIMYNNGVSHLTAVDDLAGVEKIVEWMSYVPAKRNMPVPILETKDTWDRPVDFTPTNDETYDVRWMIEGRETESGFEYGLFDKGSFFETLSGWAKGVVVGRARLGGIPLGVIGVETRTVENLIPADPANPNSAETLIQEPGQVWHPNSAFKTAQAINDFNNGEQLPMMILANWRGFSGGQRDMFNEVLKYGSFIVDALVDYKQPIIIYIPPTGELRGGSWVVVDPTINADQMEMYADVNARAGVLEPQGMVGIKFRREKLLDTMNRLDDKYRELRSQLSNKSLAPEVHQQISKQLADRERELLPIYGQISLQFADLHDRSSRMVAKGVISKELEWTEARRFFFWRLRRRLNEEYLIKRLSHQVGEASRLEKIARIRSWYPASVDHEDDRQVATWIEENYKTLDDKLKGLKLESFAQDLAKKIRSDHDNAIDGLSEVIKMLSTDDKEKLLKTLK
Sequence of human (hACC2) (O00763 whole entry): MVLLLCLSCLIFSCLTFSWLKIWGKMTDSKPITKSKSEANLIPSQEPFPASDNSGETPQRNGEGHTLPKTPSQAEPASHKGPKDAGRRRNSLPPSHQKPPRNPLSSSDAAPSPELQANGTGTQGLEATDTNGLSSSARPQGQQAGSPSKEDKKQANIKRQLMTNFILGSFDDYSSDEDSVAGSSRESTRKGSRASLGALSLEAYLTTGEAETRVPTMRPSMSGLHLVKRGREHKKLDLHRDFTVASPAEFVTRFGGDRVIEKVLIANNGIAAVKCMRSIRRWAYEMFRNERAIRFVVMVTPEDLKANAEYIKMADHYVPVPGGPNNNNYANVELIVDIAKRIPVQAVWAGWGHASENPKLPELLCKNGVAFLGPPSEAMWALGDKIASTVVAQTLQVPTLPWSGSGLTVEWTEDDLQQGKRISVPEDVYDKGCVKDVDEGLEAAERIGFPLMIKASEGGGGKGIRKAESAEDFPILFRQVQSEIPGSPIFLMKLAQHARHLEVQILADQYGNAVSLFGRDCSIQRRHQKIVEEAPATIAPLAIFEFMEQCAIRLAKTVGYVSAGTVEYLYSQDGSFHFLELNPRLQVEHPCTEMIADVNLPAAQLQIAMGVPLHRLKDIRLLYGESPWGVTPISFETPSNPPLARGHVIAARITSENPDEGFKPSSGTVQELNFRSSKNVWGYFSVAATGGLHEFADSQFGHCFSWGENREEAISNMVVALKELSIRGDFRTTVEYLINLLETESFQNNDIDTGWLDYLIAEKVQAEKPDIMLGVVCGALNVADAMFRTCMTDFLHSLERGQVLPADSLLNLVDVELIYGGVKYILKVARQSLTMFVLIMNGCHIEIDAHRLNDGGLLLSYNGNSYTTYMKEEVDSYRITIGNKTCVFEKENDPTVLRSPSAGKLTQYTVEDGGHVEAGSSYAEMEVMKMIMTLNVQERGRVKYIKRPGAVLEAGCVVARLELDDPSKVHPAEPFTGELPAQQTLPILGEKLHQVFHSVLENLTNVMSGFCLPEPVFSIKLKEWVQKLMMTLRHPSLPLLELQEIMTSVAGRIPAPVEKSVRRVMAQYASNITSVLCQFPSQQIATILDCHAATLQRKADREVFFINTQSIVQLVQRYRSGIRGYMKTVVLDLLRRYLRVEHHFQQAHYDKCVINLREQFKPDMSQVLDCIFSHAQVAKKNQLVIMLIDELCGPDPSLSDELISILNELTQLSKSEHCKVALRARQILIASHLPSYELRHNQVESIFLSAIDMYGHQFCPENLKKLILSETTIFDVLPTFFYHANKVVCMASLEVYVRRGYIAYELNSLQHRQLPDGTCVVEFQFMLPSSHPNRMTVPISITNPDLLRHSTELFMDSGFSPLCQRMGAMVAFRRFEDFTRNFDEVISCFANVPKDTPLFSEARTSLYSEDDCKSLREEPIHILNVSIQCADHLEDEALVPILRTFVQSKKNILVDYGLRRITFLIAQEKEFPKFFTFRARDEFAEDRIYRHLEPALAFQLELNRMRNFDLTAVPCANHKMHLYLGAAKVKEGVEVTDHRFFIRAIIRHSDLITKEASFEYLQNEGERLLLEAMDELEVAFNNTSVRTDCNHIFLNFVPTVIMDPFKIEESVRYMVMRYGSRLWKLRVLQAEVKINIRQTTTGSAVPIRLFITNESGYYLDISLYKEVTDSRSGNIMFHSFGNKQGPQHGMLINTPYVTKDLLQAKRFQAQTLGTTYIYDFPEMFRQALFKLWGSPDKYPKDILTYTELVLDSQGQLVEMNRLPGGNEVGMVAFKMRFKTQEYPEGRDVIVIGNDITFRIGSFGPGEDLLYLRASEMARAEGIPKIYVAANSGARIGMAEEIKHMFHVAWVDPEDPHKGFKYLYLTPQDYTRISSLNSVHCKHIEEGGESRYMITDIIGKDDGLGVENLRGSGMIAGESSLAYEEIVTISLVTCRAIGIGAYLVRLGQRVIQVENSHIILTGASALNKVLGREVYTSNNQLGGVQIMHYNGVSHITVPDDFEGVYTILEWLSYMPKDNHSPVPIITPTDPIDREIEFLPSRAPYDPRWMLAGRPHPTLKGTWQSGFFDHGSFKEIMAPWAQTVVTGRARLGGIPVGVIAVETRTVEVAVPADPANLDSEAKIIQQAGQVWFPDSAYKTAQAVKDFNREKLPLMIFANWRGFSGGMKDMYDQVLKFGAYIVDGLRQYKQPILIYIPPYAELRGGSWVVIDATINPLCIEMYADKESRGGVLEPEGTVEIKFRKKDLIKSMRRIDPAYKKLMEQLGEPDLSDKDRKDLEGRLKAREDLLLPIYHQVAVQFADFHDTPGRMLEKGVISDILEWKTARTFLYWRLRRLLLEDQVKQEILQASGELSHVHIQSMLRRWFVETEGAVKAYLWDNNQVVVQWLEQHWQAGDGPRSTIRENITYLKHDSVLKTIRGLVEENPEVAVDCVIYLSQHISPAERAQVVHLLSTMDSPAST

The term MIC denotes the lowest concentration that inhibits growth of the organism. What is called IC50 is the concentration that gives 50% inhibition. For the compound `Cc1c(-n2nccn2)sc2c1c(=O)n(C(C)(C)C(=O)N1CCCC1)c(=O)n2C[C@H](OC1CCOCC1)c1cc(F)ccc1OCCO` [Compound I-112], the MIC with C. krusei (Table 3a) fell in the range of 0.25 to 1 µg/mL (≈ 0.373 to 1.49 µM); with C. krusei (Table 3b (additional results)) it was 0.25 to 1 µg/mL (≈ 0.373 to 1.49 µM); in the test with C. parapsilosis (Table 3a), 0.25 to 1 µg/mL (≈ 0.373 to 1.49 µM); with C. parapsilosis (Table 3b (additional results)), 1.01 to 2 µg/mL (≈ 1.51 to 2.98 µM); in the test on C. albicans (Table 3a) it was 0.25 to 1 µg/mL (≈ 0.373 to 1.49 µM); in the test with C. albicans (Table 3b (additional results)) it was 0.25 to 1 µg/mL (≈ 0.373 to 1.49 µM). For the same compound, the IC50 lay within 0.4 to 1 nM on fungal (fACC2) (Table 2a); 0.3 to 1 nM at fungal (fACC2) (Table 2b, additional results); 1 to 5 nM at human (hACC2) (Table 2a); 1 to 5 nM on human (hACC2) (Table 2b, additional results).
On to `COc1ccc(F)cc1[C@H](Cn1c(=O)n(C(C)(C)C(=O)N2CCCC2)c(=O)c2c(C)c(-n3nccn3)sc21)OCC(O)C(F)(F)F` (stereo partly shown) [Compound I-113], for which the MIC is 0.25 to 1 µg/mL (≈ 0.374 to 1.5 µM) in the test with C. krusei (Table 3a); 2.01 to 4 µg/mL (≈ 3.01 to 5.98 µM) in the test on C. krusei (Table 3b (additional results)); 1.1 to 2 µg/mL (≈ 1.65 to 2.99 µM) in the test on C. parapsilosis (Table 3a); 1.01 to 2 µg/mL (≈ 1.51 to 2.99 µM) in the test on C. parapsilosis (Table 3b (additional results)); 0.25 to 1 µg/mL (≈ 0.374 to 1.5 µM) with C. albicans (Table 3a); above 4.01 µg/mL in the test with C. albicans (Table 3b (additional results)). Further, the IC50 at fungal (fACC2) (Table 2a) lay within 1 to 5 nM; at fungal (fACC2) (Table 2b, additional results) it was 1 to 5 nM; against human (hACC2) (Table 2a), 1 to 5 nM; at human (hACC2) (Table 2b, additional results) it was 1 to 5 nM.
For `C=CCN(C)C(=O)C(C)(C)n1c(=O)c2c(C)c(-n3nccn3)sc2n(C[C@H](OC(C)C)c2cc(F)ccc2OC)c1=O` [Compound I-115], the MIC with C. krusei (Table 3a) was 1.1 to 2 µg/mL (≈ 1.84 to 3.34 µM); in the test with C. krusei (Table 3b (additional results)) it was 1.01 to 2 µg/mL (≈ 1.69 to 3.34 µM); in the test on C. parapsilosis (Table 3a), 1.1 to 2 µg/mL (≈ 1.84 to 3.34 µM); in the test on C. parapsilosis (Table 3b (additional results)), above 4.01 µg/mL; in the test on C. albicans (Table 3a), 2.1 to 4 µg/mL (≈ 3.51 to 6.68 µM); with C. albicans (Table 3b (additional results)), 1.01 to 2 µg/mL (≈ 1.69 to 3.34 µM). Also, the half-inhibitory concentration (IC50) at fungal (fACC2) (Table 2a) was 1 to 5 nM; on fungal (fACC2) (Table 2b, additional results) it was 1 to 5 nM; against human (hACC2) (Table 2a), 5 to 10 nM; at human (hACC2) (Table 2b, additional results), 5 to 10 nM.
Take `Cc1c(-n2nccn2)sc2c1c(=O)n(C(C)(C)C(=O)NC(C)C)c(=O)n2C[C@H](OC1CCOCC1)c1cc(F)ccc1OCC#N` [Compound I-116]: the MIC with C. krusei (Table 3a), in the test with C. krusei (Table 3b (additional results)), in the test with C. parapsilosis (Table 3a), in the test on C. parapsilosis (Table 3b (additional results)), with C. albicans (Table 3a) and in the test on C. albicans (Table 3b (additional results)) was 0.25 to 1 µg/mL (≈ 0.382 to 1.53 µM) each time. The IC50 lay within 0.4 to 1 nM on fungal (fACC2) (Table 2a); 0.3 to 1 nM at fungal (fACC2) (Table 2b, additional results); 5 to 10 nM against human (hACC2) (Table 2a); 5 to 10 nM on human (hACC2) (Table 2b, additional results).
For the compound `COc1ccc(F)cc1[C@H](Cn1c(=O)n(C(C)(C)C(=O)N2CC=CC2)c(=O)c2c(C)c(-n3nccn3)sc21)OC[C@H](C)O` [Compound I-117], the MIC is 0.25 to 1 µg/mL (≈ 0.408 to 1.63 µM) with C. krusei (Table 3a); above 4.01 µg/mL with C. krusei (Table 3b (additional results)); 2.1 to 4 µg/mL (≈ 3.43 to 6.53 µM) in the test with C. parapsilosis (Table 3a); 2.01 to 4 µg/mL (≈ 3.28 to 6.53 µM) with C. parapsilosis (Table 3b (additional results)); 2.1 to 4 µg/mL (≈ 3.43 to 6.53 µM) in the test on C. albicans (Table 3a); 1.01 to 2 µg/mL (≈ 1.65 to 3.26 µM) in the test with C. albicans (Table 3b (additional results)). For the same compound, the IC50 on fungal (fACC2) (Table 2a) fell in the range of 0.4 to 1 nM; at fungal (fACC2) (Table 2b, additional results), 0.3 to 1 nM; against human (hACC2) (Table 2a), 5 to 10 nM; on human (hACC2) (Table 2b, additional results), 5 to 10 nM.
For `COc1ccc(F)cc1[C@H](Cn1c(=O)n(C(C)(C)C(=O)N2CCCC2)c(=O)c2c(C)c(-n3nccn3)sc21)OCCCO` [Compound I-118], the MIC with C. krusei (Table 3a) fell in the range of 0.25 to 1 µg/mL (≈ 0.407 to 1.63 µM); in the test with C. krusei (Table 3b (additional results)), 1.01 to 2 µg/mL (≈ 1.64 to 3.25 µM); with C. parapsilosis (Table 3a), 2.1 to 4 µg/mL (≈ 3.42 to 6.51 µM); with C. parapsilosis (Table 3b (additional results)) it was 1.01 to 2 µg/mL (≈ 1.64 to 3.25 µM); in the test on C. albicans (Table 3a) it was 1.1 to 2 µg/mL (≈ 1.79 to 3.25 µM); in the test with C. albicans (Table 3b (additional results)) it was 1.01 to 2 µg/mL (≈ 1.64 to 3.25 µM). In addition, the half-maximal inhibitory concentration (IC50) was in the range of 0.4 to 1 nM at fungal (fACC2) (Table 2a); 0.3 to 1 nM at fungal (fACC2) (Table 2b, additional results); 1 to 5 nM on human (hACC2) (Table 2a); 1 to 5 nM against human (hACC2) (Table 2b, additional results).
With `COc1ccc(F)cc1[C@H](Cn1c(=O)n(C(C)(C)C(=O)NC(C)C)c(=O)c2c(C)c(-n3nccn3)sc21)OCCCO` [Compound I-119], the minimal inhibitory concentration (MIC) was 0.06 to 0.24 µg/mL (≈ 0.0996 to 0.398 µM) in the test with C. krusei (Table 3a); 0.25 to 1 µg/mL (≈ 0.415 to 1.66 µM) in the test on C. krusei (Table 3b (additional results)); 0.25 to 1 µg/mL (≈ 0.415 to 1.66 µM) with C. parapsilosis (Table 3a); 0.25 to 1 µg/mL (≈ 0.415 to 1.66 µM) in the test on C. parapsilosis (Table 3b (additional results)); 0.25 to 1 µg/mL (≈ 0.415 to 1.66 µM) in the test with C. albicans (Table 3a); 0.25 to 1 µg/mL (≈ 0.415 to 1.66 µM) in the test with C. albicans (Table 3b (additional results)). Further, the half-maximal inhibitory concentration (IC50) at fungal (fACC2) (Table 2a) lay within 0.4 to 1 nM; on fungal (fACC2) (Table 2b, additional results), 0.3 to 1 nM; against human (hACC2) (Table 2a), 1 to 5 nM; against human (hACC2) (Table 2b, additional results), 1 to 5 nM.
